In ChEMBL document CHEMBL5696442, “Discovery of type II inhibitors of TGFβ-activated kinase 1 (TAK1) and mitogen-activated protein kinase kinase kinase kinase 2 (MAP4K2)” (J Med Chem, 2015):
Active and inactive are the calls of the source. The calls are words filed in the database; no cut-off is given here.

Legend:
[1] = target: T1, Inhibitor of nuclear factor kappa-B kinase subunit epsilon (Homo sapiens) (UniProt Q14164); assay: Inhibition of IKKe Lys2 labeling site in human Huh-7 cells at 1 uM by KiNativ Profiling analysis relative to control; assay type: cell-based
T1 sequence (whole entry): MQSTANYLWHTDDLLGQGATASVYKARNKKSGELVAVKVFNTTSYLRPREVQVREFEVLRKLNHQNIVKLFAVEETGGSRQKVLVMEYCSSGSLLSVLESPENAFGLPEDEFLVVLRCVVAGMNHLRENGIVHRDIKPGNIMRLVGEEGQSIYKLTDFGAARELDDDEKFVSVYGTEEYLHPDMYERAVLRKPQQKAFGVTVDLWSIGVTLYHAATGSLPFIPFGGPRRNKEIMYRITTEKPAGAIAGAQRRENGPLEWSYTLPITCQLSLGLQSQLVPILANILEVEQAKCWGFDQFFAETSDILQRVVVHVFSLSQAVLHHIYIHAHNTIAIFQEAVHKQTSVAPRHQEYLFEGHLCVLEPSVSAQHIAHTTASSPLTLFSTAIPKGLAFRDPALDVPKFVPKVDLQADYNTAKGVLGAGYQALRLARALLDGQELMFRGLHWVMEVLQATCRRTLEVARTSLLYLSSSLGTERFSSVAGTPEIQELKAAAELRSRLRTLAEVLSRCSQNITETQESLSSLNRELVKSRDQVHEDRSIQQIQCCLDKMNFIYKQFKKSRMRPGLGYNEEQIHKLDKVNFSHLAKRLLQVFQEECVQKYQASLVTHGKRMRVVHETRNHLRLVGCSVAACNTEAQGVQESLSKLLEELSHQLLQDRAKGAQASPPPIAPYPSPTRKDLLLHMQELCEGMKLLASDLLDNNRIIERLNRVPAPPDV

[2] = target: T2, Serine/threonine-protein kinase LATS2 (Homo sapiens) (UniProt Q9NRM7); assay: Inhibition of LATS2 Lys1 labeling site in human Huh-7 cell lysate at 1 uM by KiNativ Profiling analysis relative to control; assay type: subcellular
T2 sequence (whole entry): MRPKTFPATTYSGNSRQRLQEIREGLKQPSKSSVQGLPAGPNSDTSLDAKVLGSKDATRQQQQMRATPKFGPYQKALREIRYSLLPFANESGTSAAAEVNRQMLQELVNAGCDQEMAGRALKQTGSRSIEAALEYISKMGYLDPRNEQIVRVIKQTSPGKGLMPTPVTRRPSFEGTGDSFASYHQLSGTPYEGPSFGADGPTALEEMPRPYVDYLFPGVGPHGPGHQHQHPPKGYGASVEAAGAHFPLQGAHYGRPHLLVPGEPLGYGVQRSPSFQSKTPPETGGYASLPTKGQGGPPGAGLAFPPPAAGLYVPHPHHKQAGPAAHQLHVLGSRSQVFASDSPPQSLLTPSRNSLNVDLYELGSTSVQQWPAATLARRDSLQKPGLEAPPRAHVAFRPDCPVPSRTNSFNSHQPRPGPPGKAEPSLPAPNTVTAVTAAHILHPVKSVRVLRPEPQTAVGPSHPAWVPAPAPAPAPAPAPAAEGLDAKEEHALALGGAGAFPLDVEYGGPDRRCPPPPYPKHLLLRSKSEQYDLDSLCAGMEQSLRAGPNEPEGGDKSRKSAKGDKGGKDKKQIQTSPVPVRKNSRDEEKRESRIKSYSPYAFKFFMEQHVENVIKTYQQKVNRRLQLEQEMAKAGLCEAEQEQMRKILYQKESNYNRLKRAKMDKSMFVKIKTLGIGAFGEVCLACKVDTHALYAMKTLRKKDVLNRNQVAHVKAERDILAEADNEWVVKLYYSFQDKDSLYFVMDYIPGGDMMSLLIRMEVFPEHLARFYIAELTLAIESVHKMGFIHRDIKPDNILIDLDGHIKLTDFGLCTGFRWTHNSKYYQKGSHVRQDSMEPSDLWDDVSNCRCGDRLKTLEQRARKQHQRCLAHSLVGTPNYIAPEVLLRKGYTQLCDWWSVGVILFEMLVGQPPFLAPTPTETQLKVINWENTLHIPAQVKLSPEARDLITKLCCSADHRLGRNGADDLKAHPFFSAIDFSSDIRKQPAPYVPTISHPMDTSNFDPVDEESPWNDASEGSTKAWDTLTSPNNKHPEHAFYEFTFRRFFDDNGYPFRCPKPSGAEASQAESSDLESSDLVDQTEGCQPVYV

[3] = target: Activin receptor type-1B (Homo sapiens) (UniProt P36896); assay: Inhibition of ACVR1B (unknown origin) at 10 uM by Ambit Kinomescan binding assay
Chain of Activin receptor type-1B (Homo sapiens) (P36896 whole entry): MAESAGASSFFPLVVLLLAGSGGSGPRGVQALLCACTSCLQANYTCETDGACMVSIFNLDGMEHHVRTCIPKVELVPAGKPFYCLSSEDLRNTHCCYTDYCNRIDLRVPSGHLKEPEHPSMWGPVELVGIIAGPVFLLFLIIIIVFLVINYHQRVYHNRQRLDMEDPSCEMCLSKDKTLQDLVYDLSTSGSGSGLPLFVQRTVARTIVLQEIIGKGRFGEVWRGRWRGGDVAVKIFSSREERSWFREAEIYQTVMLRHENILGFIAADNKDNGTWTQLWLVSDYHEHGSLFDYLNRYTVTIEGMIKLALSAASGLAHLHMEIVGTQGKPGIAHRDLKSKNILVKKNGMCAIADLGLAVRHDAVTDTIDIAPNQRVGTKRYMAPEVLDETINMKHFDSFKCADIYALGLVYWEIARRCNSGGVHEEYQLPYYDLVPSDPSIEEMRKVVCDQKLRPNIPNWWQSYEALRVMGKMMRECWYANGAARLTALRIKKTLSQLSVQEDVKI

[4] = target: Death-associated protein kinase 3 (Homo sapiens) (UniProt O43293); assay: Inhibition of DAPK3 (unknown origin) at 10 uM by Ambit Kinomescan binding assay
Chain of Death-associated protein kinase 3 (Homo sapiens) (O43293 whole entry, looked up, the tested form may be a part): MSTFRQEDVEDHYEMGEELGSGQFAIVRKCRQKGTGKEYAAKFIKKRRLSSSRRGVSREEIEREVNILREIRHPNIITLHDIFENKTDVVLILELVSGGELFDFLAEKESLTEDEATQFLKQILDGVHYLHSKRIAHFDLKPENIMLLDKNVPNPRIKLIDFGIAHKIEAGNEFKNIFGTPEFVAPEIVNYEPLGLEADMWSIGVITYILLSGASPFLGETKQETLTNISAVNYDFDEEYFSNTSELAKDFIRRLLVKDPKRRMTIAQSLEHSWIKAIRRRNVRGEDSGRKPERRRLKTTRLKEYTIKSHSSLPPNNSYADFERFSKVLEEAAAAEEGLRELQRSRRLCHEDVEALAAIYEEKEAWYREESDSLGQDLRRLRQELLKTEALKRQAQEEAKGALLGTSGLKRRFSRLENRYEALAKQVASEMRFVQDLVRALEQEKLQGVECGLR

[5] = target: Discoidin domain-containing receptor 2 (Homo sapiens) (UniProt Q16832); assay: Inhibition of DDR2 (unknown origin) at 10 uM by Ambit Kinomescan binding assay relative to control; values are per cent of control
Chain of Discoidin domain-containing receptor 2 (Homo sapiens) (Q16832 whole entry, the tested form may be a part): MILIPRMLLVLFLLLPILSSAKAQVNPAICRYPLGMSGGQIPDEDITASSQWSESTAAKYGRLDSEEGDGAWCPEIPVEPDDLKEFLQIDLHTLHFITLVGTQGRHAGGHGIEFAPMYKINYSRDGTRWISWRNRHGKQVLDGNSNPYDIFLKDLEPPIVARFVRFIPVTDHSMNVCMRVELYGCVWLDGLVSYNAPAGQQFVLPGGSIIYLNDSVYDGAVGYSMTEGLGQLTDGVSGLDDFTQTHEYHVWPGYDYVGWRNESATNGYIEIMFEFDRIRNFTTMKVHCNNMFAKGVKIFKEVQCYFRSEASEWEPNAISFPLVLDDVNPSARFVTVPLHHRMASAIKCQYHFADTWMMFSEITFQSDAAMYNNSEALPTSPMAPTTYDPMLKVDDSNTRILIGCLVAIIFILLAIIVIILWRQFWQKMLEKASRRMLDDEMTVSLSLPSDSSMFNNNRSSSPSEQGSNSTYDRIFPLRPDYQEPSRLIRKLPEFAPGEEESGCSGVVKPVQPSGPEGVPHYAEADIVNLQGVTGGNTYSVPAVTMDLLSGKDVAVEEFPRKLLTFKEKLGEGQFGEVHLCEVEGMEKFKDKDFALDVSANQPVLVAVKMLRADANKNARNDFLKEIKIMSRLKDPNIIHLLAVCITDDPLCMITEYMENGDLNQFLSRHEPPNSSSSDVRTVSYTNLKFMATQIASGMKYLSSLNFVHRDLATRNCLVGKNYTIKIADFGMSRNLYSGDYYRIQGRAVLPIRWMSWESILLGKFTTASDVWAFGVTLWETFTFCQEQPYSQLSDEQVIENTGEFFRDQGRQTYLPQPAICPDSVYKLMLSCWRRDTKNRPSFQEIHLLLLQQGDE

[6] = target: Calcium/calmodulin-dependent protein kinase type IV (Homo sapiens) (UniProt Q16566); assay: Inhibition of CAMK4 (unknown origin) at 1 uM by Ambit Kinomescan binding assay relative to control; values are per cent of control
Chain of Calcium/calmodulin-dependent protein kinase type IV (Homo sapiens) (Q16566 whole entry): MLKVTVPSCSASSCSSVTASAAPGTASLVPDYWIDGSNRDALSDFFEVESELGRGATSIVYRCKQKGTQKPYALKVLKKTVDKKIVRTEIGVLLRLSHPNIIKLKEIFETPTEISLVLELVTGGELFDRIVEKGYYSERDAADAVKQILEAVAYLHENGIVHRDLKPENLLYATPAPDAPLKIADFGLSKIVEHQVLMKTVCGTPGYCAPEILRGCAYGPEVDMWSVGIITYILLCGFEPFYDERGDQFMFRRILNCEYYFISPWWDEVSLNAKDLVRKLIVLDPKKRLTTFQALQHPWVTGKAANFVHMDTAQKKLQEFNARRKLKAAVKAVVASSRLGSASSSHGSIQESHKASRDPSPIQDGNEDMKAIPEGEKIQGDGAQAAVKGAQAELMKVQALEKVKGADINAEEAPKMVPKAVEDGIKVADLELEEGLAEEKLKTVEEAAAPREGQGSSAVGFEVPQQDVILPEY

[7] = target: Phosphatidylinositol 4-kinase beta (Homo sapiens) (UniProt Q9UBF8); assay: Inhibition of PI4KB ATP labeling site harbouring VPHTQAVVLNSKDKAPYLIYVEVLECENFDTTSVPAR in human A-375 cells at 5 uM by KiNativ Profiling analysis relative to control; assay type: cell-based
Chain of Phosphatidylinositol 4-kinase beta (Homo sapiens) (Q9UBF8 2-816 limits assumed): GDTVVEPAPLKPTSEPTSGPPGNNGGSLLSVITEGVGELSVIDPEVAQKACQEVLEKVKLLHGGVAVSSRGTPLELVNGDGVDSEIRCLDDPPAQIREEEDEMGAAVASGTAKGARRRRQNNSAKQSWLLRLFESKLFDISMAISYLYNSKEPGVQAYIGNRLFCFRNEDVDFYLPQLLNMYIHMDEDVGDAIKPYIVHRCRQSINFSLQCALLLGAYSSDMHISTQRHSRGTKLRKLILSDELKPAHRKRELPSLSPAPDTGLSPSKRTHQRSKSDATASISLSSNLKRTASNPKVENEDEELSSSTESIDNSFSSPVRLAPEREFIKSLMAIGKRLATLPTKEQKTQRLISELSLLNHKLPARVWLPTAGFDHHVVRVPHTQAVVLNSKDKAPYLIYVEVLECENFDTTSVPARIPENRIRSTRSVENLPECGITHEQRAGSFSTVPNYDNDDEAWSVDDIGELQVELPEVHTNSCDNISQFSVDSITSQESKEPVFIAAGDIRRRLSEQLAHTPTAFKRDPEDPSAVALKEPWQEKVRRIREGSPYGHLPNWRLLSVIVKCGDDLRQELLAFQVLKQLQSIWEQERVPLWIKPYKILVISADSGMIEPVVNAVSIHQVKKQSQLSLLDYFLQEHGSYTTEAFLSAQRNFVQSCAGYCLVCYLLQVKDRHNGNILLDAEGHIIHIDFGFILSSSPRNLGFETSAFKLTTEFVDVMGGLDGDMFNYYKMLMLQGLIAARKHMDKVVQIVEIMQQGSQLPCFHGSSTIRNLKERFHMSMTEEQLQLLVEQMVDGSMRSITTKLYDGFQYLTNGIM

`CNc1cc(Oc2cc(C(=O)Nc3cc(N4CCN(C)CC4)cc(C(F)(F)F)c3)ccc2C)ncn1` was tested, and the inhibition [1] was 17.7% and the inhibition [2] was -3.8%.
With `CCN1CCN(Cc2ccc(NC(=O)c3ccc(C)c(Oc4ccnc5[nH]ccc45)c3)cc2C(F)(F)F)CC1` the inhibition [3] was “inactive”, the inhibition [4] was “inactive” and the percent of control [5] was 5.1%.
`CCN1CCN(Cc2ccc(NC(=O)c3ccc(C)c(/C=C/c4cnc5[nH]ccc5c4OC)c3)cc2C(F)(F)F)CC1` was tested, and the residual activity [6] was 100% and the inhibition [7] was 14.1%.
